According to ChEMBL document CHEMBL1201862, “PubChem BioAssay data set” (2004):
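Interpolation was linear, between the two tested concentrations surrounding the appropriate level; five concentrations were tested over 48 hours in 96-well plates. The concentration for 50% growth inhibition is given as GI50.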 The source made the active and inactive calls. No stated cut-off is given here; in the data, active = GI50 up to about 1.1 µM and inactive = higher.

Assays:
Assay in all cases: DTP human tumour cell line panel, 48 h
OVCAR-3 = test system: OVCAR-3
LOX IMVI = test system: LOX IMVI
NCI/ADR-RES = test system: NCI/ADR-RES
A498 = test system: A498
TK-10 = test system: TK-10
SNB-19 = test system: SNB-19
CAKI-1 = test system: CAKI-1
HCT-116 = test system: HCT-116
SW-620 = test system: SW-620
HL-60 = test system: HL-60
SF-295 = test system: SF-295
OVCAR-4 = test system: OVCAR-4
OVCAR-8 = test system: OVCAR-8
HOP-62 = test system: HOP-62
SK-MEL-2 = test system: SK-MEL-2
MCF7 = test system: MCF7
U-251 = test system: U-251
RXF 393 = test system: RXF 393
SF-539 = test system: SF-539
PC-3 = test system: PC-3
UACC-62 = test system: UACC-62
KM12 = test system: KM12
COLO 205 = test system: COLO 205
T47D = test system: T47D
HOP-92 = test system: HOP-92
SN12C = test system: SN12C
RPMI-8226 = test system: RPMI-8226
HCC 2998 = test system: HCC 2998
BT-549 = test system: BT-549
DU-145 = test system: DU-145
786-0 = test system: 786-0
IGROV-1 = test system: IGROV-1
UO-31 = test system: UO-31
SF-268 = test system: SF-268
HCT-15 = test system: HCT-15
NCI-H23 = test system: NCI-H23
SR = test system: SR
HT-29 = test system: HT-29
M14 = test system: M14
MOLT-4 = test system: MOLT-4
SK-MEL-28 = test system: SK-MEL-28
NCI-H460 = test system: NCI-H460
OVCAR-5 = test system: OVCAR-5
Malme-3M = test system: Malme-3M
EKVX = test system: EKVX
ACHN = test system: ACHN
Hs-578T = test system: Hs-578T
NCI-H226 = test system: NCI-H226
NCI-H522 = test system: NCI-H522
SK-OV-3 = test system: SK-OV-3
UACC-257 = test system: UACC-257
K562 = test system: K562
SK-MEL-5 = test system: SK-MEL-5
A549 = test system: A549
MDA-N = test system: MDA-N
MDA-MB-435 = test system: MDA-MB-435
MDA-MB-231 = test system: MDA-MB-231
CCRF-CEM = test system: CCRF-CEM
SNB-75 = test system: SNB-75

Q: With Nc1nc(=O)[nH]cc1F [FLUCYTOSINE] as the compound, how does the GI50 (OVCAR-3) read?
A: > 100 µM (inactive)

Q: What about the GI50 (LOX IMVI) of the same compound?
A: > 100 µM (inactive)

Q: What about the GI50 (NCI/ADR-RES) of the same compound?
A: > 100 µM (inactive)

Q: And the GI50 (A498)?
A: > 100 µM (inactive)

Q: And the GI50 (TK-10)?
A: > 100 µM (inactive)

Q: And the GI50 (SNB-19)?
A: > 100 µM (inactive)

Q: What about the GI50 (CAKI-1) of the same compound?
A: > 100 µM (inactive)

Q: What about the GI50 (HCT-116) of the same compound?
A: > 100 µM (inactive)

Q: And the GI50 (SW-620)?
A: > 100 µM (inactive)

Q: And the GI50 (HL-60)?
A: > 100 µM (inactive)

Q: What about the GI50 (SF-295) of the same compound?
A: > 100 µM (inactive)

Q: What about the GI50 (OVCAR-4) of the same compound?
A: > 100 µM (inactive)

Q: And the GI50 (OVCAR-8)?
A: > 100 µM (inactive)

Q: What about the GI50 (HOP-62) of the same compound?
A: > 100 µM (inactive)

Q: And the GI50 (SK-MEL-2)?
A: > 100 µM (inactive)

Q: What about the GI50 (MCF7) of the same compound?
A: > 100 µM (inactive)

Q: What about the GI50 (U-251) of the same compound?
A: 32.7 µM (inactive)

Q: What about the GI50 (RXF 393) of the same compound?
A: > 100 µM (inactive)

Q: And the GI50 (SF-539)?
A: > 100 µM (inactive)

Q: And the GI50 (PC-3)?
A: > 100 µM (inactive)

Q: And the GI50 (UACC-62)?
A: > 100 µM (inactive)

Q: What about the GI50 (KM12) of the same compound?
A: > 100 µM (inactive)

Q: What about the GI50 (COLO 205) of the same compound?
A: > 100 µM (inactive)

Q: And the GI50 (T47D)?
A: > 100 µM (inactive)

Q: And the GI50 (HOP-92)?
A: > 100 µM (inactive)

Q: And the GI50 (SN12C)?
A: > 100 µM (inactive)

Q: And the GI50 (RPMI-8226)?
A: > 100 µM (inactive)

Q: What about the GI50 (HCC 2998) of the same compound?
A: > 100 µM (inactive)

Q: What about the GI50 (BT-549) of the same compound?
A: > 100 µM (inactive)

Q: What about the GI50 (DU-145) of the same compound?
A: > 100 µM (inactive)

Q: And the GI50 (786-0)?
A: > 100 µM (inactive)

Q: What about the GI50 (IGROV-1) of the same compound?
A: > 100 µM (inactive)

Q: And the GI50 (UO-31)?
A: > 100 µM (inactive)

Q: And the GI50 (SF-268)?
A: > 100 µM (inactive)

Q: And the GI50 (HCT-15)?
A: > 100 µM

Q: And the GI50 (NCI-H23)?
A: > 100 µM (inactive)

Q: And the GI50 (SR)?
A: > 100 µM (inactive)

Q: And the GI50 (HT-29)?
A: > 100 µM (inactive)

Q: And the GI50 (M14)?
A: > 100 µM (inactive)

Q: And the GI50 (MOLT-4)?
A: > 100 µM (inactive)

Q: And the GI50 (SK-MEL-28)?
A: > 100 µM (inactive)

Q: What about the GI50 (NCI-H460) of the same compound?
A: > 100 µM (inactive)

Q: And the GI50 (OVCAR-5)?
A: > 100 µM (inactive)

Q: What about the GI50 (Malme-3M) of the same compound?
A: > 100 µM (inactive)

Q: What about the GI50 (EKVX) of the same compound?
A: > 100 µM (inactive)

Q: What about the GI50 (ACHN) of the same compound?
A: > 100 µM (inactive)

Q: And the GI50 (Hs-578T)?
A: > 100 µM (inactive)

Q: And the GI50 (NCI-H226)?
A: > 100 µM (inactive)

Q: What about the GI50 (NCI-H522) of the same compound?
A: > 100 µM (inactive)

Q: What about the GI50 (SK-OV-3) of the same compound?
A: > 100 µM (inactive)

Q: What about the GI50 (UACC-257) of the same compound?
A: 24 µM (inactive)

Q: And the GI50 (K562)?
A: > 100 µM (inactive)

Q: What about the GI50 (SK-MEL-5) of the same compound?
A: > 100 µM (inactive)

Q: What about the GI50 (A549) of the same compound?
A: > 100 µM (inactive)

Q: What about the GI50 (MDA-N) of the same compound?
A: > 100 µM (inactive)

Q: What about the GI50 (MDA-MB-435) of the same compound?
A: > 100 µM (inactive)

Q: Cc1ccc(C=C(C(=O)O)C(=O)O)o1 was tested. Which GI50 (MDA-MB-231) did it give?
A: > 100 µM (inactive)

Q: What about the GI50 (OVCAR-3) of the same compound?
A: > 100 µM (inactive)

Q: And the GI50 (LOX IMVI)?
A: > 100 µM (inactive)

Q: What about the GI50 (NCI/ADR-RES) of the same compound?
A: > 100 µM (inactive)

Q: What about the GI50 (A498) of the same compound?
A: > 100 µM (inactive)

Q: And the GI50 (TK-10)?
A: > 100 µM (inactive)

Q: What about the GI50 (SNB-19) of the same compound?
A: > 100 µM (inactive)

Q: What about the GI50 (CAKI-1) of the same compound?
A: > 100 µM (inactive)

Q: What about the GI50 (HCT-116) of the same compound?
A: > 100 µM (inactive)

Q: What about the GI50 (SW-620) of the same compound?
A: > 100 µM (inactive)

Q: And the GI50 (HL-60)?
A: > 100 µM (inactive)

Q: And the GI50 (SF-295)?
A: > 100 µM (inactive)

Q: And the GI50 (OVCAR-8)?
A: > 100 µM (inactive)

Q: And the GI50 (HOP-62)?
A: > 100 µM (inactive)

Q: What about the GI50 (SK-MEL-2) of the same compound?
A: > 100 µM (inactive)

Q: And the GI50 (MCF7)?
A: > 100 µM (inactive)

Q: And the GI50 (U-251)?
A: > 100 µM (inactive)

Q: What about the GI50 (RXF 393) of the same compound?
A: > 100 µM (inactive)

Q: What about the GI50 (SF-539) of the same compound?
A: > 100 µM (inactive)

Q: And the GI50 (PC-3)?
A: > 100 µM (inactive)

Q: What about the GI50 (UACC-62) of the same compound?
A: > 100 µM (inactive)

Q: What about the GI50 (KM12) of the same compound?
A: > 100 µM (inactive)

Q: And the GI50 (COLO 205)?
A: > 100 µM (inactive)

Q: And the GI50 (CCRF-CEM)?
A: > 100 µM (inactive)

Q: What about the GI50 (SN12C) of the same compound?
A: > 100 µM (inactive)

Q: And the GI50 (RPMI-8226)?
A: > 100 µM (inactive)

Q: And the GI50 (HCC 2998)?
A: > 100 µM (inactive)

Q: And the GI50 (BT-549)?
A: > 100 µM (inactive)

Q: And the GI50 (DU-145)?
A: > 100 µM (inactive)

Q: What about the GI50 (786-0) of the same compound?
A: > 100 µM (inactive)

Q: And the GI50 (IGROV-1)?
A: > 100 µM (inactive)

Q: What about the GI50 (UO-31) of the same compound?
A: > 100 µM (inactive)

Q: What about the GI50 (SF-268) of the same compound?
A: > 100 µM (inactive)

Q: What about the GI50 (HCT-15) of the same compound?
A: > 100 µM

Q: What about the GI50 (NCI-H23) of the same compound?
A: > 100 µM (inactive)

Q: And the GI50 (SR)?
A: > 100 µM (inactive)

Q: What about the GI50 (HT-29) of the same compound?
A: > 100 µM (inactive)

Q: And the GI50 (M14)?
A: > 100 µM (inactive)

Q: And the GI50 (MOLT-4)?
A: > 100 µM (inactive)

Q: What about the GI50 (SK-MEL-28) of the same compound?
A: > 100 µM (inactive)

Q: And the GI50 (NCI-H460)?
A: > 100 µM (inactive)

Q: And the GI50 (OVCAR-5)?
A: > 100 µM (inactive)

Q: And the GI50 (Malme-3M)?
A: > 100 µM (inactive)

Q: And the GI50 (EKVX)?
A: > 100 µM (inactive)

Q: What about the GI50 (ACHN) of the same compound?
A: > 100 µM (inactive)

Q: What about the GI50 (SNB-75) of the same compound?
A: > 100 µM (inactive)

Q: What about the GI50 (Hs-578T) of the same compound?
A: > 100 µM (inactive)

Q: And the GI50 (NCI-H226)?
A: > 100 µM (inactive)

Q: And the GI50 (NCI-H522)?
A: > 100 µM (inactive)

Q: And the GI50 (SK-OV-3)?
A: > 100 µM (inactive)

Q: And the GI50 (UACC-257)?
A: > 100 µM (inactive)

Q: And the GI50 (K562)?
A: > 100 µM (inactive)

Q: What about the GI50 (SK-MEL-5) of the same compound?
A: > 100 µM (inactive)

Q: And the GI50 (A549)?
A: > 100 µM (inactive)

Q: And the GI50 (MDA-N)?
A: > 100 µM (inactive)

Q: What about the GI50 (MDA-MB-435) of the same compound?
A: > 100 µM (inactive)
